According to ChEMBL document CHEMBL1201862, “PubChem BioAssay data set” (2004):
Calls of active or inactive are those of the source.

Columns and labels:
[1] = NIH-3T3 fibroblast cytotoxicity, dose response, cytotoxicity control, cell-based, fluorescence, Alamar Blue, secondary assay (AID 2327); type: functional;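 also: NIH-3T3 mouse fibroblasts cultured with fluconazole at 8 µg/mL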
[2] = C. albicans growth with fluconazole, confirmation, fluorescence, retest (AID 2467); type: functional, cell-based
[3] = Vero E6 cell cytotoxicity, dose response, cytotoxicity control for non-replicating M. tuberculosis project, secondary assay (AID 492998); type: functional, VeroE6; details: Vero C1008
[4] = molecular target: T1, Mucolipin-3 (Homo sapiens, UniProt Q8TDD5); assay: Dose response cell-based high-throughput screening assay for agonists of the transient receptor potential channel ML3 (TRPML3). [Related pubchem assays: 1526, 1424, 1448 ]; type: functional
T1 sequence (Q8TDD5 whole entry): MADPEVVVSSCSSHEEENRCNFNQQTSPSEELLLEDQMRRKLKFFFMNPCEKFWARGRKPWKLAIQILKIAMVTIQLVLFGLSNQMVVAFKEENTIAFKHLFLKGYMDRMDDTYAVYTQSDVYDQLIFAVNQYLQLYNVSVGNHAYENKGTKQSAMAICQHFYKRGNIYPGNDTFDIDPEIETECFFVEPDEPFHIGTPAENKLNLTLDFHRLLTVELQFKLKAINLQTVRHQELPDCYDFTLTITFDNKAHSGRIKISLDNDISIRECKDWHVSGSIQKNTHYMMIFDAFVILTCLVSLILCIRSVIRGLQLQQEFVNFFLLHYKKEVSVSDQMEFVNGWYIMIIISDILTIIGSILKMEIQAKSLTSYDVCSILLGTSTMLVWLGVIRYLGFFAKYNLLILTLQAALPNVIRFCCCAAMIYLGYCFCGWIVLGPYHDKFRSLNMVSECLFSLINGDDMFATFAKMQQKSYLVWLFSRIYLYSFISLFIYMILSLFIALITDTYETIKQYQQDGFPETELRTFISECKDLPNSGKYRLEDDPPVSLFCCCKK

[5] = molecular target: Ion channel NompC (Danio rerio, UniProt Q7T1G6); assay: Fluorescence counterscreen assay for TRPML3 agonists: dose response cell-based high-throughput screening assay to identify agonists of the transient receptor potential channel N1 (TRPN1). [Related pubchem assays: 1526, 1424, 1448 ]; type: functional
Sequence of Ion channel NompC (Q7T1G6 whole entry): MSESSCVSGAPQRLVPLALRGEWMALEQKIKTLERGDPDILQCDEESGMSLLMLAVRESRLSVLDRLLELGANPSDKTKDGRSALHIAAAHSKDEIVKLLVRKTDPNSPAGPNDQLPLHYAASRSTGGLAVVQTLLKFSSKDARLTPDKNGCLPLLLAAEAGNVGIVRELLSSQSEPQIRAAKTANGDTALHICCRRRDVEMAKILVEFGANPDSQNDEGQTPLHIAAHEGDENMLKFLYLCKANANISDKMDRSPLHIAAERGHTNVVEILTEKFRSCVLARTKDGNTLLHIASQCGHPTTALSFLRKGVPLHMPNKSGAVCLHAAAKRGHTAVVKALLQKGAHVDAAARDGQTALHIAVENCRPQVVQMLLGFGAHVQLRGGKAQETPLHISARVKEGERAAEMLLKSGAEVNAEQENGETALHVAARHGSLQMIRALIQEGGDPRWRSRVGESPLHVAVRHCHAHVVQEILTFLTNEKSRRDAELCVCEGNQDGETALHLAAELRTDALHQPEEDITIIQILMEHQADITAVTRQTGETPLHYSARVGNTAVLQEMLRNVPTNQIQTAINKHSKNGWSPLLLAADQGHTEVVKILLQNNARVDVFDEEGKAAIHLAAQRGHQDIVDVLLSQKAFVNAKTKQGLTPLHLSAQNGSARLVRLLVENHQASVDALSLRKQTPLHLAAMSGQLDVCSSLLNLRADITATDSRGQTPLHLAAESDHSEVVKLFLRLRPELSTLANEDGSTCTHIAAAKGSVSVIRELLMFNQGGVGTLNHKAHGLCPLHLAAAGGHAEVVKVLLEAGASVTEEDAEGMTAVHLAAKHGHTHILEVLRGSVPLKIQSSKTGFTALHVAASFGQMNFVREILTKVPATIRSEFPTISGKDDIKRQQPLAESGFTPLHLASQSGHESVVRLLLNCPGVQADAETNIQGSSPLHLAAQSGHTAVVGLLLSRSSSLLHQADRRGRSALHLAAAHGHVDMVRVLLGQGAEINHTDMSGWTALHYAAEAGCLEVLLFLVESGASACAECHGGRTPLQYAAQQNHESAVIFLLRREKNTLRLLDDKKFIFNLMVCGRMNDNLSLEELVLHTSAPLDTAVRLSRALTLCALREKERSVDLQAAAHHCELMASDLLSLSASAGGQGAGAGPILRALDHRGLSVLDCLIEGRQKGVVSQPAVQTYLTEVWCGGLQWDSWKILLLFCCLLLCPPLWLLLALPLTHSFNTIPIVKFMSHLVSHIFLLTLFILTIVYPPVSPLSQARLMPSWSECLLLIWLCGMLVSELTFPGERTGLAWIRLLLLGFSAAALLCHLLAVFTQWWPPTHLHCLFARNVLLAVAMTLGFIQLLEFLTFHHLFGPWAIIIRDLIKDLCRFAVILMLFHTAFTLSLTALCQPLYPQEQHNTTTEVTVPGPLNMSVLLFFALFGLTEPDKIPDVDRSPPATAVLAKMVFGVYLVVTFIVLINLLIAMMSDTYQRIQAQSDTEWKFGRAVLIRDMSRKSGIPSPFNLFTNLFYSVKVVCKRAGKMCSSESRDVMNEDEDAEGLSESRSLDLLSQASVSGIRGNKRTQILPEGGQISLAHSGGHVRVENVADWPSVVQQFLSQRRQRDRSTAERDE

[6] = molecular target: Voltage-dependent T-type calcium channel subunit alpha-1H (Homo sapiens, UniProt O95180); type: functional;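 also: channel activity triggered by adding a high calcium stimulation buffer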
Sequence of Voltage-dependent T-type calcium channel subunit alpha-1H (O95180 whole entry): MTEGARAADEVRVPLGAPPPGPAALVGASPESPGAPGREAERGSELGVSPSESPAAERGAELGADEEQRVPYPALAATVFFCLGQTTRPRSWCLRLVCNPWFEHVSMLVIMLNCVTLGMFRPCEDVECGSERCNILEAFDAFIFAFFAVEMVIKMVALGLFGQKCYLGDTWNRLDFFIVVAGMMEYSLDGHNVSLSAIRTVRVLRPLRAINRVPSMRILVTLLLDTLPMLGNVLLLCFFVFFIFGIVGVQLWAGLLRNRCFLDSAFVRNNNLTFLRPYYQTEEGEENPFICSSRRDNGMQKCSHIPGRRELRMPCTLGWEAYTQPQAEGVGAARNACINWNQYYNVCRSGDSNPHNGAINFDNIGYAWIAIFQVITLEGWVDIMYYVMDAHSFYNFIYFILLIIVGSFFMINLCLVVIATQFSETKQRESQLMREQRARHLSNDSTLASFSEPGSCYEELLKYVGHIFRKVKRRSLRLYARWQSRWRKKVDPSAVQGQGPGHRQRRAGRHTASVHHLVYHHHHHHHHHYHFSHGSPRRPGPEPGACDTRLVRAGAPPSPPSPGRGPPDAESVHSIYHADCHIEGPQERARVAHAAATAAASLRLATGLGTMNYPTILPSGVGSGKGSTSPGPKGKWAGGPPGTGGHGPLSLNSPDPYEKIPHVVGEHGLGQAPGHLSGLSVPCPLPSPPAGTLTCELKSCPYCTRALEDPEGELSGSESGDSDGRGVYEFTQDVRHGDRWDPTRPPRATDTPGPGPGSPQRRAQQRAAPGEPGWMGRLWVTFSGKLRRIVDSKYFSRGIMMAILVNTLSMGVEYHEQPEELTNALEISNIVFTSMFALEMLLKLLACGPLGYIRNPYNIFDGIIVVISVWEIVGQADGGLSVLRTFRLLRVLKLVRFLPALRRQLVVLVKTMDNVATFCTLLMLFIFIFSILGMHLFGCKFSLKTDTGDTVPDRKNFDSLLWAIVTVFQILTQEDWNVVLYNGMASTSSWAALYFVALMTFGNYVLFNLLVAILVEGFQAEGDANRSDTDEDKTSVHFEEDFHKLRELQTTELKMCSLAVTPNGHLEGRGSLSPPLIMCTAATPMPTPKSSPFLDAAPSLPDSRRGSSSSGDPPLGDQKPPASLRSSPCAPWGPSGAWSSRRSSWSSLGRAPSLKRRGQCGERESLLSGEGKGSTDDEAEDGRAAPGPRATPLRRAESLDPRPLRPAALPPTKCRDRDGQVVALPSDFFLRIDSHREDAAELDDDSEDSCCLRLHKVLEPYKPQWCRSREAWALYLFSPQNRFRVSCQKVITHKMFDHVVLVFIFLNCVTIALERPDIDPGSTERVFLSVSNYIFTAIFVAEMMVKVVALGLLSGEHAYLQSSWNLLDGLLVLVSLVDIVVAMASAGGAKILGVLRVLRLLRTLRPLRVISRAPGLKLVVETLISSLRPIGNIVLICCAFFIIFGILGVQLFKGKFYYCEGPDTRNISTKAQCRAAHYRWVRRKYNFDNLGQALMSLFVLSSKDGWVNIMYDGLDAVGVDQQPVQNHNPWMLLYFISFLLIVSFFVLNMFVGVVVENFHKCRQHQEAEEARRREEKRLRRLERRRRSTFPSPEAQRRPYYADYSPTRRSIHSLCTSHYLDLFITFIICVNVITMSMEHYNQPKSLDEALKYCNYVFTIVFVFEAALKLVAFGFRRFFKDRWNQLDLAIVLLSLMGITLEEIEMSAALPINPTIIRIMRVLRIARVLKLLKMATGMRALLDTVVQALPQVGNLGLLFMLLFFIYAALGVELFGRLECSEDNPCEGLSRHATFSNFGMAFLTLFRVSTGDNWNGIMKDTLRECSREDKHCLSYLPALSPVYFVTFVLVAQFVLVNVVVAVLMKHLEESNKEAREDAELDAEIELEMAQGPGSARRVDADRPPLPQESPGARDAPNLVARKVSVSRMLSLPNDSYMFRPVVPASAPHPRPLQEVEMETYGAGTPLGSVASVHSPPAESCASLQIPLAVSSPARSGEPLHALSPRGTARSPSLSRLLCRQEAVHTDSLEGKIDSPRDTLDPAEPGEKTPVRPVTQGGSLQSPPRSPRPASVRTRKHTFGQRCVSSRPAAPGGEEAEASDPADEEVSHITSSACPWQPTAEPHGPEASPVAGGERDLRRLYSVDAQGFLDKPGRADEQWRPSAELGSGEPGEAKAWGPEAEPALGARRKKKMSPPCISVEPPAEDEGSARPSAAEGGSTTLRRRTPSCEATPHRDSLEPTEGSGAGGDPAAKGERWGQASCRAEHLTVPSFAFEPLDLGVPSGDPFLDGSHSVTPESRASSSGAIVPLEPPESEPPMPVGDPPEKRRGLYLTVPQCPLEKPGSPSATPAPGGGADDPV

[7] = test system: INS1; assay: beta cell apoptosis inhibitors, cytokine rescue, dose response, luminescence, retest (AID 449756); type: functional, cell-based; details: Rattus norvegicus;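 also: cell death triggered by IL-1 beta plus TNF-alpha plus IFN-gamma mixture; protective hits raise ATP signal compared with cytokine alone wells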
[8] = molecular target: T2, Cytochrome P450 3A4 (Homo sapiens, UniProt P08684)
T2 sequence (P08684 whole entry): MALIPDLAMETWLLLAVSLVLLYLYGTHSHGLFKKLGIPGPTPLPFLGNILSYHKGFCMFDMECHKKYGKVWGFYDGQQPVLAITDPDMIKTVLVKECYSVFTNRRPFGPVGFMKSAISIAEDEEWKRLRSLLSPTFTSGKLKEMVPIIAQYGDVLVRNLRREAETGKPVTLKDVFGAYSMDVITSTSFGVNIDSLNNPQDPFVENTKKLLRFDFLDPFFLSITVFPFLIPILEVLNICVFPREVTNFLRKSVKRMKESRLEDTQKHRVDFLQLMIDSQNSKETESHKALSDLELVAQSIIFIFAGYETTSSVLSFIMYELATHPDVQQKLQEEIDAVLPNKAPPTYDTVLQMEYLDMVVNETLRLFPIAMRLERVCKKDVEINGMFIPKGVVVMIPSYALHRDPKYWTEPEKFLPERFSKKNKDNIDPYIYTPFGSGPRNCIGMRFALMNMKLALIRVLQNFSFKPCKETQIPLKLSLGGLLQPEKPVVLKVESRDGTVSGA

[9] = molecular target: Beta-galactosidase (Escherichia coli, UniProt Q8VNN2); assay: beta-galactosidase enzyme inhibitors and activators, dose response, artefact control for CCR6 antagonist project, biochemical, E. coli enzyme, set 3 (AID 504712); type: functional
[10] = molecular target: T3, Heat shock factor protein 1 (Mus musculus, UniProt P38532); assay: HSF1 potentiators in luciferase reporter cells, confirmation, cell-based, NIH3T3, luminescence, dose retest (AID 435004); type: functional;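 also: stress induced by proteasome inhibitor MG132 added 30 min after compound; luciferase reporter driven by HSF1 response element in NIH3T3 cells; actives raise luminescence as potentiators of the MG132 stress response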
T3 sequence (P38532 whole entry): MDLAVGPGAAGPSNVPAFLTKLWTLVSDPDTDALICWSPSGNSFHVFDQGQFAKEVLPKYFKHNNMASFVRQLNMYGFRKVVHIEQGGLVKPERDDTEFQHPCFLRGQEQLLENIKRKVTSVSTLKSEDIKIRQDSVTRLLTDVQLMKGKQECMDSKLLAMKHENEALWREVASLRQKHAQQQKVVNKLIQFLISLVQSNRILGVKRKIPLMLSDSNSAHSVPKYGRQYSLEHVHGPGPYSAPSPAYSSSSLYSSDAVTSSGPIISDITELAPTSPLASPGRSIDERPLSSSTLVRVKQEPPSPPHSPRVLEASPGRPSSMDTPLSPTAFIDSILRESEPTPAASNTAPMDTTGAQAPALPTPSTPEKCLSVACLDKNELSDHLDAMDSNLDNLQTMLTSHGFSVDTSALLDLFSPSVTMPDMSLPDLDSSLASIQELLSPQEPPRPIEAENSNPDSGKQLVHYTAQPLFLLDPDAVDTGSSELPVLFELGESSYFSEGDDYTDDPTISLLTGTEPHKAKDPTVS

[11] = molecular target: Neurotensin receptor type 1 (Homo sapiens, UniProt P30989); type: functional;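 also: Image-based confirmatory dose-response assay measuring agonist activity at NTR1; NTR1-expressing U2OS osteosarcoma cells imaged for beta-arrestin GFP spot formation; agonist potency where compounds increase beta-arrestin recruitment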
Sequence of Neurotensin receptor type 1 (P30989 whole entry): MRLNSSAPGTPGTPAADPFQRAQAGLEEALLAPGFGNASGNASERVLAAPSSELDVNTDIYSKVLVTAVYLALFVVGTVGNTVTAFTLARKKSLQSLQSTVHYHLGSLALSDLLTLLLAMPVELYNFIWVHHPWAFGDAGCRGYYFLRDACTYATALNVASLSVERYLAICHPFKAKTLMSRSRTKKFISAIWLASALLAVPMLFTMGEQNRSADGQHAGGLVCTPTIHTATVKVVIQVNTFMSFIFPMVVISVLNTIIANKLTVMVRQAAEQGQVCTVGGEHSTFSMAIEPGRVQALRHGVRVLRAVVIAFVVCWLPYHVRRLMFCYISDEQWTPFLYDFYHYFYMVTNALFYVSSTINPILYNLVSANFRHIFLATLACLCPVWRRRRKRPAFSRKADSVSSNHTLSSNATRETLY

[12] = molecular target: T2, Cytochrome P450 3A4; details: Potency
[13] = inhibitors of intracellular T. cruzi replication, confirmation, NIH3T3 host cells, beta-gal luminescence (AID 2044); type: functional, cell-based;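 also: intracellular parasites grown in NIH/3T3 mouse fibroblasts as host cells; luminescent beta-galactosidase reporter signal from transgenic T. cruzi replicating inside host cells; inhibitors lower the luminescence signal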
[14] = cytotoxicity toward NIH3T3 fibroblasts, dose response, counter-screen, cell-based, ATP luminescence, mouse fibroblasts (AID 2010); type: functional;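 also: cells exposed to compound for about 90 hours before reading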
[15] = molecular target: T4, Corticotropin-releasing factor receptor 2/Corticotropin-releasing factor-binding protein (Homo sapiens, UniProt P24387+Q13324); assay: Dose Response confirmation of uHTS hits for small molecule antagonists of the CRF-binding protein and CRF-R2 receptor complex.; type: functional; details: read-out: IC50_Mean
T4 sequence (Q13324 whole entry): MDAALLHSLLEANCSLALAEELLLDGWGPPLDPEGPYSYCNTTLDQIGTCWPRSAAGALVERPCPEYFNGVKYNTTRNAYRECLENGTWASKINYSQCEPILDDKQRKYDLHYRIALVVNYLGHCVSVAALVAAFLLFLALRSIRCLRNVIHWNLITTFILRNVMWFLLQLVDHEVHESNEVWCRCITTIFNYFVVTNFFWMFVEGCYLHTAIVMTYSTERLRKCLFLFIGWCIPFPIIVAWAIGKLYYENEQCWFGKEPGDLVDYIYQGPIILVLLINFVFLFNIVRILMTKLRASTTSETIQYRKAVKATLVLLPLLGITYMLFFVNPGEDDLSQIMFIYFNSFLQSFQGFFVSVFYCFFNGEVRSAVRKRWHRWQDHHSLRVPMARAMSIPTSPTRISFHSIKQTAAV
T4 sequence (P24387 whole entry): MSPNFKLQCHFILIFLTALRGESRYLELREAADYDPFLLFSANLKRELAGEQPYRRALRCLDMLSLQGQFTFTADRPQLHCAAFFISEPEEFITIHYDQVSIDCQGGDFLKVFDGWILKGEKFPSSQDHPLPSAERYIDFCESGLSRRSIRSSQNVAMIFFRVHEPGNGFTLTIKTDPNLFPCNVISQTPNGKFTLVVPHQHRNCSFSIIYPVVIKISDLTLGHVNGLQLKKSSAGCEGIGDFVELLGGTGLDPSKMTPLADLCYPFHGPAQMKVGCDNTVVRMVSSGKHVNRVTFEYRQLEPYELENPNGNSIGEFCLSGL

[16] = molecular target: T4, Corticotropin-releasing factor receptor 2/Corticotropin-releasing factor-binding protein; assay: activators of CRF receptor 2 with binding protein – uHTS hits, confirmation (AID 602473); type: functional; details: read-out: EC50_Mean
[17] = cells
[18] = THP-1 cell cytotoxicity, dose response, cytotoxicity control for non-replicating M. tuberculosis project (AID 489025); type: functional
[19] = HepG2 cell cytotoxicity, dose response, cytotoxicity control for non-replicating M. tuberculosis project (AID 489018); type: functional; details: Mycobacterium tuberculosis
[20] = molecular target: T5, High affinity choline transporter 1 (Homo sapiens, UniProt Q9GZV3); assay: CHT inhibitors, dose response, cell-based, 5-point CRC, membrane potential dye (AID 504840); type: functional
T5 sequence (Q9GZV3 whole entry): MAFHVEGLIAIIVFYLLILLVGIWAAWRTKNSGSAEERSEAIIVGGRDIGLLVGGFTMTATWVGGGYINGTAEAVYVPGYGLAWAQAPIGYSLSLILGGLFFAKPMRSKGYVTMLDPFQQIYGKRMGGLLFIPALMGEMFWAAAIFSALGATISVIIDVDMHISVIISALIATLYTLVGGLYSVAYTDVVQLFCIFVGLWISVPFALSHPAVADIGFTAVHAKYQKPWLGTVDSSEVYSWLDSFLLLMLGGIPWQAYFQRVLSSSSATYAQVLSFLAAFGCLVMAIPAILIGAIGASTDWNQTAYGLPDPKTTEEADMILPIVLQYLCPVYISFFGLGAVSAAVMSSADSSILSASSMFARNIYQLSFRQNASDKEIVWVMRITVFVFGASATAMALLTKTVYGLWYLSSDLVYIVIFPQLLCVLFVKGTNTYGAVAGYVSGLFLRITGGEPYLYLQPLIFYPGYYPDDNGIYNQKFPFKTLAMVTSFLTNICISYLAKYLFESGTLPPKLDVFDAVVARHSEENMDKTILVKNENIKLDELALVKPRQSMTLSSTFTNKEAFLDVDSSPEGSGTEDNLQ

[21] = cytotoxicity in HEK-293T cells, dose response, cytotoxicity control for TCR NF-kB inhibitor project, luminescence, T-cell screen hits (AID 489026); type: functional, cell-based;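 also: cells exposed to compound about 14 hours before the viability readout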
[22] = cells; type: functional
[23] = test system: Streptococcus sp. 'group A'; assay: growth inhibition of control SK(-) GAS strain, dose response, counter-screen for streptokinase expression inhibitor project, luminescence, kanamycin, BacTiterGlo, confirmation (AID 1900); type: functional, organism-based
[24] = molecular target: T6, Streptokinase A (Streptococcus pyogenes serotype M1, UniProt P10520); assay: S. pyogenes streptokinase expression inhibitors, potency, dose response, plasminogen activation absorbance, OD405 (AID 1914); type: functional, Streptococcus pyogenes M1 GAS;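 also: secreted streptokinase activity via plasminogen activation per viability signal from cell pellet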
T6 sequence (P10520 whole entry): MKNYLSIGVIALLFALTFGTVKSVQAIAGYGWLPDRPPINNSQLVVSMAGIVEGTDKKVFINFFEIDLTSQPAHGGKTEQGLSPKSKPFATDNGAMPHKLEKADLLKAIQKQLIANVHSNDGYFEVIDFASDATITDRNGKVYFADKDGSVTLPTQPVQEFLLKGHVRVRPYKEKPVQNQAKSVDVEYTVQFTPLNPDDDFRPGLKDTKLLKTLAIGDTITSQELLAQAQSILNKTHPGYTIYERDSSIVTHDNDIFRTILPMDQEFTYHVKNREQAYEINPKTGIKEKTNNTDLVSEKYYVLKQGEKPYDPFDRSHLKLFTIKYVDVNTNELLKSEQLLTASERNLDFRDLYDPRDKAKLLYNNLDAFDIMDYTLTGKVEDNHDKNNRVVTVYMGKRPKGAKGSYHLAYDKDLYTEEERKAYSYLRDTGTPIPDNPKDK

[25] = test system: Streptococcus; assay: Group A Streptococcus viability loss, dose response, counter-screen for streptokinase expression inhibitor project, luminescence, BacTiterGlo (AID 1915); type: functional, organism-based;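 also: potency for reduction of bacterial viability or growth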

## CC(C)c1ccc(C2=C(O)C(=O)c3ccccc3C2=O)cc1
[1]
  EC50: 67.1 µM (active)
[2]
  EC50: 1.11 µM (active)
[3]
  CC50: 16.5 µM (active)

## COc1cc(C)nc(N(Cc2ccccc2)S(=O)(=O)c2ccc(C)cc2)n1
[4]
  EC50: 6.93 µM (active)
[5]
  EC50: > 29.9 µM (not active)

## C=CCN(CC=C)CC(O)Cn1c2ccccc2c2ccccc21 (stereo not given)
[6]
  EC50: 9.06 µM (active)
[7]
  AC50: > 120 µM (inactive)
[8]
  AC50: 28.2 µM (inconclusive)

## CCc1ccccc1NC(=O)c1cc2sccc2n1C
[6]
  EC50: 12 µM (active)

## CCOC(=O)c1c(N2C(=O)C=CC2=O)sc(C)c1C
[9]
  IC50: > 66.6 µM (inactive)
[10]
  EC50: 4.22 µM (active)

## C=CCOc1ccc2c(c1)c(S(=O)(=O)c1ccc(C)cc1)cn2COC
[4]
  EC50: 1.16 µM (active)
[5]
  EC50: > 29.9 µM (not active)

## CCOc1cc(/C=C2/C(=O)ON=C2C)ccc1OCc1ccccc1
[11]
  EC50: 23 µM (inactive)

## Cc1ccc(S(=O)(=O)N(C)CC(=O)ONC(=N)c2cccc([N+](=O)[O-])c2)cc1
[4]
  EC50: 12.1 µM (not active)
[5]
  EC50: > 29.9 µM (not active)

## CNC(=O)[C@H](C)/C=C(\c1cccnc1)C(NC(=O)OCc1ccccc1)c1ccc(C(=O)OC)cc1 (stereo not given in full)
[12]
  AC50: 20 µM (inconclusive)

## CCN(CC)CCN(C(=O)CN1C(=O)c2ccccc2C1=O)c1nc2cc3c(cc2s1)OCO3
[13]
  EC50: < 0.1 µM (active)
[14]
  EC50: > 60 µM (not active)
[15]
  IC50: > 47.1 µM (inactive)
[16]
  EC50: > 53 µM (inactive)
[17]
  EC50: 0.349 µM (active)

## Cc1ccc2c(c1)C(O)(c1c(C)[nH]c3ccccc13)C(=O)N2 (stereo not given)
[6]
  EC50: 8.82 µM (active)

## Cc1cc(Br)ccc1OCCCCN1CCCCC1
[13]
  EC50: 0.75 µM (active)
[14]
  EC50: > 60 µM (not active)
[18]
  CC50: > 40 µM (active)
[19]
  CC50: > 20 µM (active)

## COc1c2c(cc3c1OCO3)C13C=CC(OC)CC1N(C2)CC3O (stereo not given)
[12]
  AC50: 39.8 µM (inconclusive)

## C=C1C(=O)OC2C1CC/C(C)=C/CCC1(C)OC21 (stereo not given)
[12]
  AC50: 25.1 µM (inconclusive)

## Cc1cccc(OCC(O)Cn2c(=N)n(Cc3ccccc3)c3ccccc32)c1 (stereo not given)
[18]
  CC50: 23.3 µM (active)
[19]
  CC50: > 20 µM (active)
[20]
  IC50: 6.92 µM (active)

## C[C@H](NC(=O)c1[nH]cnc1C(=O)NCc1ccc(CNC(=O)OC(C)(C)C)cc1)C(=O)OCc1ccccc1
[11]
  EC50: 19.4 µM (active)

## COc1cc(C(=O)N/N=C/c2cc([N+](=O)[O-])cs2)cc(OC)c1OC
[18]
  CC50: 0.724 µM (active)
[19]
  CC50: > 20 µM (active)
[3]
  CC50: 5.03 µM (active)
[21]
  IC50: > 80 µM (inactive)
[22]
  IC50: 0.87 µM (active)

## O=[N+]([O-])c1cc(Cl)cc(/C=N/Nc2nc3ccccc3s2)c1O
[23]
  EC50: 2.17 µM (active)
[24]
  EC50: > 150 µM (not active)
[25]
  EC50: 7.64 µM (active)
[18]
  CC50: 10 µM (active)
[19]
  CC50: 16.4 µM (active)
[3]
  CC50: 10.4 µM (active)
[22]
  IC50: 2.82 µM (active)
